# Several values for one entry are separate records, joined by “and”; a condition that tells them apart may be missing. Equal values may be shown once. HELM strings list units from the 5' end as sugar, base in round brackets, then linkage (d deoxyribose, r ribose, m 2'-O-methyl, p phosphodiester). Methylation of C is not given here. [moe] = 2'-O-(2-methoxyethyl) (MOE); [cEt] = constrained ethyl (cEt); [sp] = phosphorothioate linkage
# Biological target: HBV
# Conditions: ASO
Substance,"target mRNA inhibition (HepG2, 0.07 µM)",other results
RNA1{[moe](A)[sp].[cEt](T)[sp].d(G)[sp].d(A)[sp].d(G)[sp].d(G)[sp].d(C)[sp].d(A)[sp].d(T)[sp].d(A)[sp].d(G)[sp].d(C)[sp].[cEt](A)[sp].[moe](G)[sp].[cEt](C)[sp].[moe](A)}$$$$V2.0,63% and 57%,–
RNA1{[moe](A)[sp].[moe](A)[sp].[moe](C)[sp].[moe](C)[sp].[moe](A)[sp].d(C)[sp].d(T)[sp].d(G)[sp].d(A)[sp].d(A)[sp].d(C)[sp].d(A)[sp].d(A)[sp].d(A)[sp].[moe](T)[sp].[moe](G)[sp].[moe](G)}$$$$V2.0,55% and 52%,–
RNA1{[moe](A)[sp].[moe](A)[sp].[moe](C)[sp].[moe](C)[sp].[moe](A)[sp].d(C)[sp].d(T)[sp].d(G)[sp].d(A)[sp].d(A)[sp].d(C)[sp].d(A)[sp].d(A)[sp].d(A)[sp].[moe](T)[sp].[moe](G)}$$$$V2.0,24% and 20%,–
RNA1{[moe](A)[sp].[moe](A)[sp].[moe](G)[sp].[cEt](C)[sp].[cEt](G)[sp].d(A)[sp].d(A)[sp].d(G)[sp].d(T)[sp].d(G)[sp].d(C)[sp].d(A)[sp].[cEt](C)[sp].[cEt](A)[sp].[moe](C)[sp].[moe](G)[sp].[moe](G)}$$$$V2.0,–,"target mRNA inhibition (HepG2, 0.009375 µM): 23%; target mRNA inhibition (HepG2, 0.01875 µM): 19%; target mRNA inhibition (HepG2, 0.0375 µM): 39%; target mRNA inhibition (HepG2, 0.075 µM): 49%; target mRNA inhibition (HepG2, 0.15 µM): 66%; target mRNA inhibition (HepG2, 0.3 µM): 75%"
RNA1{[moe](A)[sp].[moe](A)[sp].[moe](G)[sp].[moe](A)[sp].d(T)[sp].d(G)[sp].d(A)[sp].d(G)[sp].d(G)[sp].d(C)[sp].d(A)[sp].d(T)[sp].d(A)[sp].[moe](G)[sp].[moe](C)[sp].[moe](A)[sp].[moe](G)}$$$$V2.0,44% and 37%,–
RNA1{[moe](A)[sp].[moe](A)[sp].[moe](G)[sp].[moe](C)[sp].d(G)[sp].d(A)[sp].d(A)[sp].d(G)[sp].d(T)[sp].d(G)[sp].d(C)[sp].d(A)[sp].d(C)[sp].[moe](A)[sp].[moe](C)[sp].[moe](G)[sp].[moe](G)}$$$$V2.0,78% and 64%,"target mRNA inhibition (HepG2, 0.0092593 µM): 5%; target mRNA inhibition (HepG2, 0.0277778 µM): 27%; target mRNA inhibition (HepG2, 0.0833333 µM): 69%; target mRNA inhibition (HepG2, 0.25 µM): 81%"
RNA1{[moe](A)[sp].[moe](A)[sp].[moe](G)[sp].d(T)[sp].d(C)[sp].d(C)[sp].d(A)[sp].d(C)[sp].d(C)[sp].d(A)[sp].d(C)[sp].d(G)[sp].d(A)[sp].[cEt](G)[sp].[cEt](T)[sp].[cEt](C)}$$$$V2.0,19% and 25%,–
RNA1{[moe](A)[sp].[moe](A)[sp].[moe](T)[sp].[moe](T)[sp].[moe](T)[sp].[moe](A)[sp].d(T)[sp].d(G)[sp].d(C)[sp].d(C)[sp].d(T)[sp].d(A)[sp].d(C)[sp].d(A)[sp].d(G)[sp].[moe](C)[sp].[moe](C)}$$$$V2.0,53% and 48%,–
RNA1{[moe](A)[sp].[moe](A)[sp].[moe](T)[sp].[moe](T)[sp].[moe](T)[sp].d(A)[sp].d(T)[sp].d(G)[sp].d(C)[sp].d(C)[sp].d(T)[sp].d(A)[sp].d(C)[sp].d(A)[sp].[moe](G)[sp].[moe](C)[sp].[moe](C)}$$$$V2.0,63% and 50%,–
RNA1{[moe](A)[sp].[moe](A)[sp].d(C)[sp].d(C)[sp].d(A)[sp].d(C)[sp].d(T)[sp].d(G)[sp].d(A)[sp].d(A)[sp].d(C)[sp].[moe](A)[sp].[moe](A)[sp].[moe](A)[sp].[moe](T)[sp].[moe](G)}$$$$V2.0,15% and 0%,–
RNA1{[moe](A)[sp].[moe](A)[sp].d(C)[sp].d(T)[sp].d(G)[sp].d(G)[sp].d(A)[sp].d(G)[sp].d(C)[sp].d(C)[sp].d(A)[sp].[moe](C)[sp].[moe](C)[sp].[moe](A)[sp].[moe](G)[sp].[moe](C)}$$$$V2.0,48% and 43%,–
RNA1{[moe](A)[sp].[moe](A)[sp].d(G)[sp].d(C)[sp].d(G)[sp].d(A)[sp].d(A)[sp].d(G)[sp].d(T)[sp].d(G)[sp].d(C)[sp].[moe](A)[sp].[moe](C)[sp].[moe](A)[sp].[moe](C)[sp].[moe](G)}$$$$V2.0,70% and 68%,–
RNA1{[moe](A)[sp].[moe](C)[sp].[moe](C)[sp].[moe](A)[sp].[moe](C)[sp].[moe](T)[sp].d(G)[sp].d(A)[sp].d(A)[sp].d(C)[sp].d(A)[sp].d(A)[sp].d(A)[sp].d(T)[sp].d(G)[sp].[moe](G)[sp].[moe](C)}$$$$V2.0,59% and 42%,–
RNA1{[moe](A)[sp].[moe](C)[sp].[moe](C)[sp].[moe](A)[sp].d(A)[sp].d(T)[sp].d(T)[sp].d(T)[sp].d(A)[sp].d(T)[sp].d(G)[sp].d(C)[sp].d(C)[sp].[moe](T)[sp].[moe](A)[sp].[moe](C)[sp].[moe](A)}$$$$V2.0,39% and 38%,–
RNA1{[moe](A)[sp].[moe](C)[sp].[moe](C)[sp].d(A)[sp].d(A)[sp].d(T)[sp].d(T)[sp].d(T)[sp].d(A)[sp].d(T)[sp].d(G)[sp].d(C)[sp].[moe](C)[sp].[moe](T)[sp].[moe](A)[sp].[moe](C)[sp].[moe](A)}$$$$V2.0,31% and 33%,–
RNA1{[moe](A)[sp].[moe](C)[sp].[moe](C)[sp].d(A)[sp].d(C)[sp].d(T)[sp].d(G)[sp].d(A)[sp].d(A)[sp].d(C)[sp].d(A)[sp].d(A)[sp].[moe](A)[sp].[moe](T)[sp].[moe](G)[sp].[moe](G)[sp].[moe](C)}$$$$V2.0,78%,–
RNA1{[moe](A)[sp].[moe](C)[sp].[moe](C)[sp].d(A)[sp].d(C)[sp].d(T)[sp].d(G)[sp].d(A)[sp].d(A)[sp].d(C)[sp].d(A)[sp].d(A)[sp].[moe](A)[sp].[moe](T)[sp].[moe](G)[sp].[moe](G)}$$$$V2.0,0% and 3%,–
RNA1{[moe](A)[sp].[moe](C)[sp].[moe](G)[sp].[moe](T)[sp].[moe](G)[sp].d(C)[sp].d(A)[sp].d(G)[sp].d(A)[sp].d(G)[sp].d(G)[sp].d(T)[sp].d(G)[sp].d(A)[sp].[moe](A)[sp].[moe](G)[sp].[moe](C)}$$$$V2.0,73% and 52%,–
RNA1{[moe](A)[sp].[moe](C)[sp].[moe](G)[sp].d(T)[sp].d(G)[sp].d(C)[sp].d(A)[sp].d(G)[sp].d(A)[sp].d(G)[sp].d(G)[sp].d(T)[sp].[moe](G)[sp].[moe](A)[sp].[moe](A)[sp].[moe](G)}$$$$V2.0,51% and 35%,–
RNA1{[moe](A)[sp].[moe](C)[sp].[moe](T)[sp].[moe](A)[sp].[moe](G)[sp].d(T)[sp].d(A)[sp].d(A)[sp].d(A)[sp].d(C)[sp].d(T)[sp].d(G)[sp].d(A)[sp].d(G)[sp].[moe](C)[sp].[moe](C)[sp].[moe](A)}$$$$V2.0,67% and 61%,–
RNA1{[moe](A)[sp].[moe](C)[sp].[moe](T)[sp].[moe](G)[sp].[moe](G)[sp].d(A)[sp].d(G)[sp].d(C)[sp].d(C)[sp].d(A)[sp].d(C)[sp].d(C)[sp].d(A)[sp].d(G)[sp].[moe](C)[sp].[moe](A)[sp].[moe](G)}$$$$V2.0,46% and 39%,–
RNA1{[moe](A)[sp].[moe](C)[sp].[moe](T)[sp].[moe](G)[sp].[moe](G)[sp].d(A)[sp].d(G)[sp].d(C)[sp].d(C)[sp].d(A)[sp].d(C)[sp].d(C)[sp].d(A)[sp].d(G)[sp].[moe](C)[sp].[moe](A)}$$$$V2.0,54% and 48%,–
RNA1{[moe](A)[sp].[moe](C)[sp].d(G)[sp].d(G)[sp].d(G)[sp].d(C)[sp].d(A)[sp].d(A)[sp].d(C)[sp].d(A)[sp].d(T)[sp].[moe](A)[sp].[moe](C)[sp].[moe](C)[sp].[moe](T)[sp].[moe](T)[sp].[moe](G)}$$$$V2.0,46%,–
RNA1{[moe](A)[sp].[moe](C)[sp].d(T)[sp].d(A)[sp].d(G)[sp].d(T)[sp].d(A)[sp].d(A)[sp].d(A)[sp].d(C)[sp].d(T)[sp].[moe](G)[sp].[moe](A)[sp].[moe](G)[sp].[moe](C)[sp].[moe](C)[sp].[moe](A)}$$$$V2.0,61%,–
RNA1{[moe](A)[sp].[moe](C)[sp].d(T)[sp].d(A)[sp].d(G)[sp].d(T)[sp].d(A)[sp].d(A)[sp].d(A)[sp].d(C)[sp].d(T)[sp].[moe](G)[sp].[moe](A)[sp].[moe](G)[sp].[moe](C)[sp].[moe](C)}$$$$V2.0,57% and 47%,–
RNA1{[moe](A)[sp].[moe](C)[sp].d(T)[sp].d(G)[sp].d(G)[sp].d(A)[sp].d(G)[sp].d(C)[sp].d(C)[sp].d(A)[sp].d(C)[sp].[moe](C)[sp].[moe](A)[sp].[moe](G)[sp].[moe](C)[sp].[moe](A)[sp].[moe](G)}$$$$V2.0,70% and 61%,–
RNA1{[moe](A)[sp].[moe](G)[sp].[moe](A)[sp].[moe](A)[sp].[moe](G)[sp].[moe](T)[sp].d(C)[sp].d(C)[sp].d(A)[sp].d(C)[sp].d(C)[sp].d(A)[sp].d(C)[sp].d(G)[sp].d(A)[sp].[moe](G)[sp].[moe](T)}$$$$V2.0,39% and 30%,–
RNA1{[moe](A)[sp].[moe](G)[sp].[moe](A)[sp].[moe](A)[sp].[moe](G)[sp].d(T)[sp].d(C)[sp].d(C)[sp].d(A)[sp].d(C)[sp].d(C)[sp].d(A)[sp].d(C)[sp].d(G)[sp].[moe](A)[sp].[moe](G)[sp].[moe](T)}$$$$V2.0,11% and 0%,–
RNA1{[moe](A)[sp].[moe](G)[sp].[moe](A)[sp].[moe](A)[sp].d(G)[sp].d(T)[sp].d(C)[sp].d(C)[sp].d(A)[sp].d(C)[sp].d(C)[sp].d(A)[sp].d(C)[sp].[moe](G)[sp].[moe](A)[sp].[moe](G)[sp].[moe](T)}$$$$V2.0,32% and 20%,–
RNA1{[moe](A)[sp].[moe](G)[sp].[moe](A)[sp].[moe](G)[sp].[moe](A)[sp].d(A)[sp].d(G)[sp].d(T)[sp].d(C)[sp].d(C)[sp].d(A)[sp].d(C)[sp].d(C)[sp].d(A)[sp].[moe](C)[sp].[moe](G)[sp].[moe](A)}$$$$V2.0,28% and 27%,–

# From the OligoGym collection
